According to patent publication US9585382B2, “Composition comprising a pesticide and an acetal solvent” (priority 2011, dated 2017):
In brackets after ≈: the same amount, converted by molar mass. Values belong to the molecule of their own block, whether it stands above or below them.

Columns and labels:
physchem = conditions: for solubility: 20 °C, organic solvent or mixture
Method: A) Pyraclostrobin was added at 20° C. to benzaldehyde dimethyl acetal or p-anisaldehyde dimethyl acetal, with stirring.

[1] = Flash point (DIN 53213-1); format: physicochemical; conditions: measured as specified in DIN 53213-1
[2] = EU directive 67/548/EEC, 1999/45/EC or 88/379/EEC; cited from earlier work
[3] = Method: The solubility of benzaldehyde dimethyl acetal or p-anisaldehyde dimethyl acetal in water at 20° C. was analyzed.
Viscosity = format: physicochemical; conditions: 20° C.

solubility (physchem; maximum solubility in Solvesso 150 ND): 19 mg/mL (≈ 46.1 mM) | solubility (physchem; maximum solubility in Solvesso 200 ND): 63 mg/mL (≈ 153 mM) | solubility (physchem; maximum solubility in p-anisaldehyde dimethyl acetal): 214 mg/mL (≈ 519 mM)
Structure (SMILES): C#CCN1C(=O)C(F)(F)Oc2cc(F)c(-n3c(=O)n(C)c(=S)n(C)c3=O)cc21 [1,5-dimethyl-6-thioxo-3-(2,2,7-trifluoro-3-oxo-4-(prop-2-ynyl)-3,4-dihydro-2H-benzo[b][1,4]oxazin-6-yl)-1,3,5-triazinan-2,4-dione]

Structure (SMILES): COC(OC)c1ccccc1 [Benzaldehyde dimethyl acetal, reference compound]
flash point [1]: 69 °C | EU R phrase [2]: R22—harmful if swallowed | EU hazard classification [2]: Xn—harmful

Structure (SMILES): COC(=O)N(OC)c1ccccc1COc1ccn(-c2ccc(Cl)cc2)n1 [Pyraclostrobin, reference compound]
solubility in benzaldehyde dimethyl acetal (physchem; 20° C., with stirring, solvent benzaldehyde dimethyl acetal (not inventive)): at least 50 % by weight | solubility in p-anisaldehyde dimethyl acetal (physchem; 20° C., with stirring, solvent p-anisaldehyde dimethyl acetal): at least 50 % by weight

solubility in water [3]: ≤ 0.1 % by weight | flash point [1]: 114 °C | viscosity (Viscosity): 5.5 mPas
Structure (SMILES): COc1ccc(C(OC)OC)cc1 [p-Anisaldehyde dimethyl acetal]
EU R phrase [2]: without R phrase | EU hazard classification [2]: without classification
